According to patent publication US7649012B2, “Compounds, pharmaceutical compositions containing same, and methods of use for same” (FASgen, Inc., priority 2002, dated 2010):
In brackets after ≈: the same amount, converted by molar mass. Read-outs that look alike come from different tables or passages of the source.

Legend:
[1] = Weight loss screen in Balb/C mice; type: in vivo; conditions: for change in vivo at 60 mg/kg: ip, 60 mg/kg intraperitoneally
Protocol: Balb/C mice (Jackson Labs) are utilized for the initial weight loss screening. Animals are housed in temperature and 12 hour day/night cycle rooms and fed mouse chow and water ad lib. Three mice are utilized for each compound tested with vehicle controls in triplicate per experiment. For the experiments, mice are housed separately for each compound tested three mice to a cage. […] Mice are observed and weighed daily; average weights and standard errors are computed with Excel (Microsoft). The experiment continues until treated animals reach their pretreatment weights. […]

[2] = system: MCF-7 human breast cancer cells; assay: [14C]acetate incorporation into total lipids; type: cell-based; conditions: for IC50: Homo sapiens, MCF7, [14C]acetate incorporation into lipids; for 14C(IC50): [14C]acetate incorporation into lipids
Protocol: This assay measures the incorporation of [^14C]acetate into total lipids and is a measure of fatty acid synthesis pathway activity in vitro. It is utilized to measure inhibition of fatty acid synthesis in vitro.
MCF-7 human breast cancer cells cultured as above, are plated at 5×10^4 cells per well in 24-well plates. […] DMSO is added to triplicate wells for a vehicle control. C75 is run at 5 and 10 μg/ml in triplicate as positive controls. After 4 hours of incubation, 0.25 μCi of [^14C]acetate (10 μl volume) is added to each well.
After 2 hours of additional incubation, medium is aspirated from the wells and 800 μl of chloroform:methanol (2:1) and 700 μl of 4 mM MgCl2 is added to each well. Contents of each well are transferred to 1.5 Eppendorf tubes, and spun at full-speed for 2 minutes in a high-speed Eppendorf Microcentrifuge 5415D. After removal of the aqueous (upper) layer, an additional 700 μl of chloroform:methanol (2:1) and 500 μl of 4 mM MgCl2 are added to each tube and then centrifuged for 1 minutes as above. The aqueous layer is removed with a Pasteur pipette and discarded. An additional 400 μl of chloroform:methanol (2:1) and 200 μl of 4 mM MgCl2 are added to each tube, then centrifuged and aqueous layer is discarded. The lower (organic) phase is transferred into a scintillation vial and dried at 40° C. under N2 gas. Once dried, 3 ml of scintillant (APB #NBC5104) is added and vials are counted for ^14C. The Beckman Scintillation counter calculates the average cpm values for triplicates.
The IC50 for the compounds is defined as the concentration of drug leading to a 50% reduction in [^14C]acetate incorporation into lipids compared to controls. […] The average cpm values are computed by the Beckman scintillation counter (Model LS6500) for each compound concentration. Computation of linear regression, best-fit line, r^2, and 95% confidence intervals are calculated using Prism Version 3.0 (Graph Pad Software).

[3] = system: Pseudomonas aeruginosa (ATCC # 27853); assay: Broth microdilution MIC; type: cell-based; conditions: for PSAE/MH(MIC): Mueller Hinton Broth; for PSAE/Tsoy(MIC): Trypticase Soy Broth
Protocol: (§1) A broth microdilution assay is used to assess the antimicrobial activity of the compounds. […] Microorganisms tested include Staphylococcus aureus (ATCC # 29213), Enterococcus faecalis (ATCC # 29212), Pseudomonas aeruginosa (ATCC # 27853), and Escherichia coli (ATCC # 25922). The assay is performed in two growth media, Mueller Hinton Broth and Trypticase Soy Broth. […] Colonies are suspended in sterile broth so that the turbidity matches the turbidity of a 0.5 McFarland standard. The inoculum is diluted 1:10 in sterile broth (Mueller Hinton or Trypticase soy) and 195 ul is dispensed per well of a 96-well plate. The compounds to be tested, dissolved in DMSO, are added to the wells in 5 ul volume at the following concentrations: 25, 12.5, 6.25, 3.125, 1.56 and 0.78 ug/ml in duplicate. Additional concentrations are tested if required. 5 ul of DMSO added to duplicate wells are the vehicle control. Serial dilutions of positive control compounds, vancomycin (E. faecalis and S. aureus) and tobramycin (E. coli and P. aeruginosa), are included in each run. After 24 hours of incubation at 37° C., plates are read at OD600 on a Molecular Devices SpectraMax Plus Spectrophotometer. Average OD600 values are computed using SOFTmax Pro Software (Molecular Devices) and MIC values are determined by linear regression analysis using Prism version 3.02 (Graph Pad Software, San Diego).

[4] = system: Escherichia coli (ATCC # 25922); assay: Broth microdilution MIC; type: cell-based; conditions: for MIC: Escherichia coli, ATCC25922, read-out: Ecoli/Tsoy(MIC); for MIC / Ecoli/Tsoy(MIC): Trypticase Soy Broth; for Ecoli/MH(MIC): Mueller Hinton Broth
Protocol: as §1

[5] = system: Enterococcus faecalis (ATCC # 29212); assay: Broth microdilution MIC; type: cell-based; conditions: for MIC: Enterococcus faecalis, ATCC29212
Protocol: as §1

[6] = system: Staphylococcus aureus (ATCC # 29213); assay: Broth microdilution MIC; type: cell-based; conditions: for MIC: Staphylococcus aureus, ATCC29213
Protocol: as §1

[7] = system: MCF-7 human breast cancer cells; assay: XTT cytotoxicity assay; type: cell-based; conditions: MCF7, MCF-7, 72 hours, some cells marked (M)
Protocol: The XTT assay is a non-radioactive alternative for the [^51 Cr] release cytotoxicity assay. XTT is a tetrazolium salt that is reduced to a formazan dye only by metabolically active, viable cells. The reduction of XTT is measured spectrophotometrically as OD490-OD650.
To measure the cytotoxicity of specific compounds against cancer cells, 9×10^3 MCF-7 human breast cancer cells, obtained from the American Type Culture Collection are plated per well in 96 well plates in DMEM medium with 10% fetal bovine serum, insulin, penicillin, and streptomycin. Following overnight culture at 37° C. and 5% CO2, the compounds to be tested, dissolved in DMSO, are added to the wells in 1 μl volume at the following concentrations: 80, 40, 20, 10, 5, 2.5, 1.25, and 0.625 μg/ml in triplicate. Additional concentrations are tested if required. 1 μl of DMSO is added to triplicate wells are the vehicle control. C75 is run at 40, 20, […], and 5 μg/ml in triplicate as positive controls. After 72 hours of incubation, cells are incubated for 4 hours with the XTT reagent as per manufacturer's instructions (Cell Proliferation Kit II (XTT) Roche). Plates are read at OD490 and OD650 on a Molecular Devices SpectraMax Plus Spectrophotometer. Three wells containing the XTT reagent without cells serve as the plate blank. XTT data are reported as OD490-OD650-Averages and standard error of the mean are computed using SOFTmax Pro software (Molecular Dynamics).
The IC50 for the compounds is defined as the concentration of drug leading to a 50% reduction in OD490-OD650 compared to controls. The OD490-OD650 are computed by the SOFTmax PRO software (Molecular Devices) for each compound concentration. IC50 is calculated by linear regression, plotting the FAS activity as percent of control versus drug concentrations. Linear regression, best-fit line, r^2, and 95% confidence intervals are determined using Prism Version 3.0 (Graph Pad Software).

[8] = Mueller Hinton Broth, read-out: EF/MH(MIC)
[9] = Trypticase Soy Broth, read-out: EF/Tsoy(MIC)
[10] = Mueller Hinton Broth, read-out: SA/MH(MIC)
[11] = Trypticase Soy Broth, read-out: SA/Tsoy(MIC)
[12] = Mus musculus, 24 h, day1, read-out: Weight Loss
[13] = Mus musculus, 48 h, day2, read-out: Weight Loss
[14] = Mus musculus, 48 h, read-out: Weight Loss

Structure (SMILES)	IC50 [2]	PSAE/MH(MIC) [3]	PSAE/Tsoy(MIC) [3]	MIC [4]	Ecoli/MH(MIC) [4]	MIC [5, 8]	MIC [5, 9]	MIC [6, 10]	MIC [6, 11]	IC50 [7]	also measured
CCCCCCC1(C)SC(=O)C=C1OC (stereo not shown)	14 ± 2.8 µg/mL (≈ 61.3 µM)	Neg	Neg	264 µg/mL (≈ 1160 µM)	Neg	43 µg/mL (≈ 188 µM)	126 µg/mL (≈ 552 µM)	45 µg/mL (≈ 197 µM)	48 µg/mL (≈ 210 µM)	9.4 ± 1.5 µg/mL (≈ 41.2 µM)	Deaths in weight loss screen ([1]; 60 mg/kg, day1, three mice): 3 of 3 dead; change in vivo at 30 mg/kg ([1]; Mus musculus, 24 h, 30 mg/kg, day1, read-out: Weight Loss): 8.7%; change in vivo at 10 mg/kg ([1]; Mus musculus, 72 h, 10 mg/kg (multiple doses), day3): 1%
CCCCCCCCC1(C)SC(=O)C=C1OC (stereo not shown)	11 µg/mL (≈ 42.9 µM)	Neg	Neg	–	Neg	72 µg/mL (≈ 281 µM)	–	252 µg/mL (≈ 983 µM)	67 µg/mL (≈ 261 µM)	16.4 ± 2.3 µg/mL (≈ 64 µM)	change in vivo at 60 mg/kg [1, 12]: 6.1%; Ecoli/Tsoy(MIC) [4]: Neg; EF/Tsoy(MIC) ([5]; Trypticase Soy Broth): Neg
C=CCC1=C(OC)C(C)(CCCCCCCC)SC1=O (stereo not shown)	23.1 ± 17.4 µg/mL (≈ 77.9 µM)	Neg	Neg	–	Neg	–	169 µg/mL (≈ 570 µM)	–	98 µg/mL (≈ 331 µM)	55 ± 2 µg/mL (≈ 186 µM)	change in vivo at 60 mg/kg [1, 12]: 7.9%; Ecoli/Tsoy(MIC) [4]: Neg; EF/MH(MIC) ([5]; Mueller Hinton Broth): Neg; SA/MH(MIC) ([6]; Mueller Hinton Broth): Neg
CCCCCCCCC1(C)SC(=O)C=C1OC(=O)OCC (stereo not shown)	14.5 ± 6.9 µg/mL (≈ 46.1 µM)	–	–	–	–	86 µg/mL (≈ 273 µM)	62 µg/mL (≈ 197 µM)	45 µg/mL (≈ 143 µM)	83 µg/mL (≈ 264 µM)	15.1 ± 2.6 µg/mL (≈ 48 µM)	change in vivo at 30 mg/kg ([1]; Mus musculus, 96 h, 30 mg/kg, day4, read-out: Weight Loss): 1.3%; change in vivo at 60 mg/kg [1, 13]: 6.9%
CC1(Cc2ccccc2)SC(=O)C=C1O (stereo not shown)	–	Neg	Neg	299 µg/mL (≈ 1360 µM)	Neg	128 µg/mL (≈ 581 µM)	–	57 µg/mL (≈ 259 µM)	67 µg/mL (≈ 304 µM)	> 80 µg/mL	change in vivo at 60 mg/kg [1, 13]: 1.6%; 14C(IC50) [2]: Neg; EF/Tsoy(MIC) ([5]; Trypticase Soy Broth): Neg
CCCCCCCCC1(C)SC(=O)C(C(C)O)=C1OC (stereo not shown)	21.7 µg/mL (≈ 72.2 µM)	Neg	Neg	249 µg/mL (≈ 829 µM)	Neg	77 µg/mL (≈ 256 µM)	25 µg/mL (≈ 83.2 µM)	53.3 ± 2.1 µg/mL (≈ 177 µM)	16.2 ± 3.8 µg/mL (≈ 53.9 µM)	21 ± 2.9 µg/mL (≈ 69.9 µM)	change in vivo at 30 mg/kg [1, 14]: 0.2%
C=CCNC(=O)COC1=CC(=O)S[C@]1(C)CCCCCCCCCC (racemic)	–	Neg	Neg	–	–	–	–	28 µg/mL (≈ 76.2 µM)	31 µg/mL (≈ 84.3 µM)	12.1 ± 0.6 µg/mL (≈ 32.9 µM)	change in vivo at 15 mg/kg ([1]; Mus musculus, 24 h, read-out: Weight Loss): 0%; change in vivo at 30 mg/kg [1, 14]: 1.8%; 14C(IC50) [2]: Neg
